Patent publication US20080318993A1 (Endo Pharmaceuticals, Inc., priority 2007, published 2008)
Where “and” joins values, the source holds several entries; their conditions need not be identical. Identical values can stand only once. Like-named read-outs stand apart in the source and are kept apart here.

Tests used:
[1] = Example 5: plasma pharmacokinetics of EN3202 20 mg in hepatic impairment vs healthy controls; conditions: for AUC / AUC(0-t) / Cmax / Tmax / half-life: human, plasma, oral, 20 mg; for AUC(0-t): AUCT; for Tmax: median (range); for increase in average AUC relative to controls: arithmetic means; for AUC increase relative to healthy controls / Cmax increase relative to healthy controls: log-transformed comparison
Experimental: (§1) While in the clinic, the subjects were to refrain from strenuous physical activity.
All study medications were supplied by the sponsor. […] A single 20 mg dose EN3202 was administered following an overnight fast (from approximately 22:00 on the evening prior to dose administration) at approximately 08:00, and participants were not allowed to eat until at least four hours after the dose.
All doses were administered with 240 mL of ambient water. Participants were instructed to drink all of the water.
Pharmacokinetic parameters were calculated using model-independent methods.
All pharmacokinetic results are summarized using appropriate descriptive statistics. […] One-way ANOVA was conducted using the model PKVAR=group, where group was mild hepatic impairment, moderate-severe hepatic impairment, or healthy control. Point estimates of the impaired versus control group differences and the corresponding 90% confidence limits were constructed.

[2] = Example 5: urinary excretion of oxymorphone and metabolites in hepatic impairment vs healthy controls; conditions: for mean amount excreted in the urine: percent of administered dose, through 120 hours
Excerpt: as §1

[3] = 10 mg oral dose, cited from earlier work
[4] = orally administered (oral solution), hydrochloride, cited from earlier work
[5] = Moderate-Severe Impairment, mean (SD)
[6] = Subject 006 (Child-Pugh Class B)
[7] = Subject 007 (Child-Pugh Class A)
[8] = Subject 009 (Child-Pugh Class B)
[9] = Subject 010 (Child-Pugh Class B)
[10] = Subject 011 (Child-Pugh Class C)
[11] = moderate-severe hepatic impairment

## CN1CC[C@]23c4c5ccc(O)c4O[C@H]2C(=O)CC[C@@]3(O)[C@H]1C5.Cl [Oxymorphone, 14-hydroxydihydromorphinone hydrochloride]
[1]; Healthy Controls, mean (SD)
  λz: 0.0970 (0.0540) hr^−1
  AUC(0-t): 18 ng·h/mL
  Cmax: 1.73 ng/mL
[1]; Healthy Controls, mean (SD), hydrochloride
  CL/F: 21.15 (13.54) L/min
[1]; Healthy Controls, mean (SD), listed as oxymorphone, hydrochloride
  CL/F: 21.15 L/min
[1]; Mild Impairment, mean (SD)
  CL/F: 13.30 (5.81) L/min
  λz: 0.0830 (0.0392) hr^−1
  AUC(0-t): 30 ng·h/mL
  Cmax: 3.98 ng/mL
[1]; [5]
  CL/F: 7.17 (5.08) L/min
  λz: 0.0970 (0.0365) hr^−1
  AUC(0-t): 104 ng·h/mL
  Cmax: 9.16 ng/mL
[1]; [6]
  CL/F: 7.34 L/min
  Cmax: 4.31 ng/mL
[1]; [7]
  CL/F: 4.45 L/min
  Cmax: 11.4 ng/mL
[1]; [8]
  CL/F: 1.38 L/min
  Cmax: 19.6 ng/mL
[1]; [9]
  CL/F: 7.63 L/min
  Cmax: 3.72 ng/mL
[1]; [10]
  CL/F: 1.33 L/min
  Cmax: 23.6 ng/mL
[1]; AUC, Healthy Controls, mean (SD), single 20 mg EN3202, fasting
  AUC: 20.6 ng·h/mL
[1]; AUC, Mild Impairment, mean (SD), single 20 mg EN3202, fasting
  AUC: 32.1 ng·h/mL
[1]; AUC, Moderate-Severe Impairment, mean (SD), single 20 mg EN3202, fasting
  AUC: 106 ng·h/mL
[1]; AUC, Subject 006 (Child-Pugh Class B)
  AUC: 45.4 ng·h/mL
[1]; AUC, Subject 007 (Child-Pugh Class A)
  AUC: 74.8 ng·h/mL
[1]; AUC, Subject 009 (Child-Pugh Class B)
  AUC: 241 ng·h/mL
[1]; AUC, Subject 010 (Child-Pugh Class B)
  AUC: 43.7 ng·h/mL
[1]; AUC, Subject 011 (Child-Pugh Class C)
  AUC: 250 ng·h/mL
[1]; range among subjects, control group
  Cmax: 0.64 to 2.83 ng/mL
[1]; range among subjects, mild impairment
  Cmax: 0.86 to 11.4 ng/mL
[1]; range among subjects, moderate-severe impairment
  Cmax: 1.66 to 23.6 ng/mL
[1]; Individual AUC results, range, healthy controls
  AUC: 6.18 to 33.9 ng·h/mL
[1]; Individual AUC results, range, subjects with mild impairment
  AUC: 15.3 to 74.8 ng·h/mL
[1]; Individual AUC results, range, subjects with moderate-severe impairment
  AUC: 24.9 to 250 ng·h/mL
[1]; Healthy Controls
  Tmax: 3.5 h
[1]; Mild Impairment
  Tmax: 1.75 h
[1]; Moderate-Severe Impairment
  Tmax: 1.5 h
[1]; T½, Healthy Controls, mean (SD)
  half-life: 9.98 h
[1]; T½, Mild Impairment, mean (SD)
  half-life: 11.8 h
[1]; T½, Moderate-Severe Impairment, mean (SD)
  half-life: 8.04 h
[1]; mean AUC after excluding Subject 007, mild group
  AUC: 23.6 ng·h/mL
[1]; median AUC, control group
  AUC: 23.8 ng·h/mL
[1]; median AUC, mildly-impaired group
  AUC: 24.7 ng·h/mL
[1]; plasma elimination half-life, Subject 009
  half-life: 6.96 h
[1]; plasma elimination half-life, Subject 011
  half-life: 10.7 h
[1]; mild hepatic impairment
  increase in average AUC relative to controls: approximately 1.56 fold
  AUC increase relative to healthy controls: 1.52 fold
[1]; mild impairment
  elimination rate constant ratio, 90% confidence limits: 0.58-1.31
  elimination rate constant, ratio to healthy controls: 0.87
  Cmax increase relative to healthy controls: 1.68 fold
[1]; moderate-severe impairment
  elimination rate constant ratio, 90% confidence limits: 0.74-1.66
  elimination rate constant, ratio to healthy controls: 1.11
  increase in average AUC relative to controls: 5.13 fold
  Cmax increase relative to healthy controls: 3.41 fold
[1]; moderate-to-severe hepatic impairment, hydrochloride
  AUC increase relative to healthy controls: 3.61 fold and 3,6 fold
[1]; two of six subjects with moderate or severe liver disease
  AUC increase in individual subjects: up to 10 fold
[2]; after single 20 mg dose
  urinary excretion essentially complete by: by the end of the 48 to 72 hour collection interval
[2]; control group
  mean amount excreted in the urine: 0.5%
[2]; discussion statement
  administered dose excreted unchanged in the urine: Less than 1%
[2]; mild hepatic impairment
  mean amount excreted in the urine: 1.2%
[2]; [11]
  increase in the amount excreted in the urine: approximately 8 fold
  mean amount excreted in the urine: 4.1%
[3]
  recovery in the first 24 hours, of the amount recovered: 82%
  recovery in the first 24 hours, of the dose: ~42%
  unchanged oxymorphone recovered in the urine: 1.9%
[3]; 120-hour collection interval, 10 healthy subjects, average
  administered dose recovered in the urine: 49%
[3]; urine
  Conjugated oxymorphone, average of the administered dose: 44.1%
[4]
  oral / average absolute bioavailability: about 10%
[4]; listed as oxymorphone
  oral / average absolute bioavailability: approximately 10%
